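Growth conditions: 96-well plates. Treatment: test compound, 48 hours, 5 concentrations. Analysis: linear interpolation between bracketing concentrations; unreached endpoints set to highest concentration. Here, GI50 denotes the concentration required for 50% inhibition of growth. TGI: total growth inhibition.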

Common to all, as to assay: DTP human tumour cell line panel, 48 h
The test system of assay [1] is HS 578T breast.
In assay [2] the test system is NCI/ADR-RES ovarian.
Assay [3] deals with A498 renal.
Assay [4] deals with SF-295 CNS.
Assay [5] deals with SN12C renal.
In assay [6] the test system is SNB-75 CNS.
Assay [7] relates to HCT-116 colon.
Assay [8] has as its system SK-OV-3 ovarian.
The test system of assay [9] is NCI-H226 lung.
Assay [10] deals with MOLT-4 leukemia.

Regarding `CC1(C)CC[C@]2(C(=O)O)CC[C@]3(C)C(=CC[C@@H]4[C@@]5(C)C/C(=C/c6cccnc6)[C@H](O)C(C)(C)[C@@H]5CC[C@]43C)[C@@H]2C1`, the GI50 in [1] is 21.8 µM; in assay [2], 9.82 µM; in assay [3] it was more than 100 µM; in assay [4] it was 4.3 µM; in assay [5], 4.7 µM; in [6], 38.6 µM. For the same compound, the GI50 in [7] was 5.12 µM; in [8] it was 19 µM; in assay [9], 8.63 µM; in assay [10], 2.63 µM. Moreover, the TGI is more than 100 µM in assay [1]; more than 100 µM in [2]; more than 100 µM in assay [3]; 87.4 µM in assay [4]; more than 100 µM in assay [5]; more than 100 µM in assay [6]. The TGI in [7] was 22.4 µM; in assay [8], more than 100 µM; in [9] it was 63 µM; in assay [10], 26 µM.
For the compound `FC(F)(F)c1ccc(-c2cnc(-c3nn[nH]n3)nc2NC2CCCCCC2)cc1`, the GI50 in assay [1], in assay [2], in [3], in assay [4], in assay [5] and in assay [6] was more than 10 µM each time. The GI50 in assay [7], in assay [8], in assay [9] and in assay [10] was more than 10 µM throughout. Besides, the TGI in assay [1], in assay [2], in [3], in assay [4], in [5] and in [6] was more than 10 µM in each case. For the same compound, the TGI in assay [7], in assay [8], in assay [9] and in assay [10] was more than 10 µM throughout.
Regarding `c1c[nH]c(CN2CCN(Cc3ncc[nH]3)CC2)n1`, the TGI in [1], in [2], in assay [3], in [4], in [5] and in assay [6] was more than 100 µM in each case. For the same compound, the TGI in [7], in assay [8], in assay [9] and in assay [10] was more than 100 µM in each case.
In the case of `C=C(C)[C@@H]1CC[C@]2(C(=O)OC)CC[C@]3(C)[C@H](CC[C@@H]4[C@@]5(C)CC/C(=N\OCCC(=NCCC#N)NOCCC#N)C(C)(C)[C@@H]5CC[C@]43C)[C@@H]12`, the GI50 in assay [1] was 30.2 µM; in assay [2], 13.5 µM; in [3], 21.7 µM; in [4], 21.4 µM; in assay [5], 7.28 µM; in assay [6], 31.2 µM. Further, the GI50 was 2.89 µM in assay [7], 10.8 µM in assay [8], 5.43 µM in assay [9] and 2.52 µM in assay [10]. The TGI is more than 50 µM in assay [1]; more than 50 µM in assay [2]; more than 50 µM in assay [3]; more than 50 µM in assay [4]; 14.7 µM in assay [5]; more than 50 µM in assay [6]. Moreover, the TGI was more than 50 µM in [7], more than 50 µM in assay [8], 15.5 µM in [9] and 13 µM in assay [10].
Consider `CC(C)CC(=O)O[C@H]1C(=O)O[C@@H]2C[C@H]3[C@H](C)C(=O)C(O[C@@H]4O[C@H](CO)[C@@H](O)[C@H](O)[C@H]4O)=C[C@]3(C)[C@H]3[C@@H](O)[C@H](O)[C@]4(C(=O)O)OC[C@]32[C@@H]14`, for which the GI50 is 39.8 µM in assay [1]; more than 100 µM in assay [2]; more than 100 µM in [3]; more than 100 µM in assay [5]; 32.8 µM in assay [7]; 29.2 µM in assay [9]. In [10], the GI50 is 18.9 µM. The TGI in assay [1], in assay [2], in assay [3], in assay [5], in assay [6] and in assay [7] was more than 100 µM throughout. In addition, the TGI in [8] was more than 100 µM; in assay [9] it was 92 µM; in [10] it was more than 100 µM.
Turning to `N=C(N)c1ccc(-c2ccc(-c3cccs3)s2)cc1F`, the GI50 is 1.8 µM in assay [1]; 2 µM in assay [2]; 0.156 µM in assay [3]; 0.39 µM in assay [4]; 1.63 µM in [5]; 1.34 µM in [6]. The GI50 is 0.922 µM in [7], 1.74 µM in assay [9] and 1.03 µM in assay [10]. Further, the total growth inhibition concentration (TGI) came out at 4.49 µM in assay [1]; 4.3 µM in [2]; 0.621 µM in [3]; 1.78 µM in [4]; 3.69 µM in assay [5]; 2.66 µM in assay [6]. Moreover, the TGI came to 2.37 µM in [7], 3.86 µM in [9] and 2.87 µM in [10].
Consider `Fc1cnccc1-c1nc2ccc3[nH]ncc3c2c2c1CCCC2`, for which the GI50 in assay [1] was 0.661 µM; in [2], 2.41 µM; in assay [3], 0.7 µM; in assay [4] it was 2.53 µM; in [5] it was 2.14 µM; in assay [6], 1.41 µM. The GI50 is 0.489 µM in assay [7], 0.342 µM in assay [8] and 2.71 µM in assay [9]. Moreover, the TGI is 6.7 µM in assay [1]; more than 100 µM in assay [2]; 2.96 µM in assay [3]; more than 100 µM in assay [4]; more than 100 µM in assay [5]; 5.54 µM in assay [6]. Also, the TGI is 5.03 µM in assay [7], 3.66 µM in assay [8] and more than 100 µM in [9].
In the case of `O=c1c2cc(F)ccc2sc2c(NCCCNCCO)nc3ccc(F)cc3c12`, the GI50 in assay [1] was 1.79 µM; in assay [2], 1.67 µM; in assay [3] it was 2.24 µM; in [4], 1.77 µM; in [5], 1.58 µM; in assay [6] it was 1.51 µM. In addition, the GI50 in assay [7] is 1.84 µM; in assay [9], 1.76 µM. For the same compound, the TGI in [1] was 4.1 µM; in assay [2], 3.22 µM; in assay [3], 7.21 µM; in assay [4], 3.23 µM; in assay [5], 3.05 µM; in assay [6], 3.27 µM. Besides, the TGI is 3.63 µM in assay [7] and 3.52 µM in [9].
As to `CC[C@@]12CC(C(=O)OC)=C3Nc4ccccc4[C@@]34CCN(C[C@H]3O[C@H]31)[C@@H]24`, the GI50 in [1] is 25.4 µM; in assay [2], 31 µM; in assay [3], 27.5 µM; in assay [4], 36.7 µM; in assay [5], more than 100 µM; in [6] it was 14.8 µM. The GI50 was 43.8 µM in assay [7] and 27.9 µM in assay [10]. The concentration for total growth inhibition (TGI) in [1] was more than 100 µM; in assay [2], more than 100 µM; in assay [3], more than 100 µM; in assay [4] it was more than 100 µM; in [5] it was more than 100 µM; in [6], 64.9 µM. Moreover, the TGI in assay [7] and in [10] was more than 100 µM in each case.
As for `Cc1n[nH]c(C)c1-c1c(C)n[nH]c1C`, the GI50 is 2.26 µM in assay [1]; 2.19 µM in assay [2]; 1.82 µM in assay [3]; 1.81 µM in assay [4]; 2.21 µM in assay [5]; 1.7 µM in [6]. Also, the GI50 in [7] is 1.48 µM; in assay [9], 1.77 µM; in [10] it was 2.24 µM. The TGI in [1] was determined as 16.9 µM; in assay [2], 6.16 µM; in assay [3] it was 4.12 µM; in [4], 3.63 µM; in [5], 5.82 µM; in [6], 4.43 µM. Further, the concentration for total growth inhibition (TGI) in assay [7] was 3.01 µM; in [9] it was 3.97 µM; in assay [10], more than 27.3 µM.
Regarding `Cc1nn(-c2ccccc2)c2c1[C@@H](C)[C@H]1CC3(CC4(C)C[C@@H]3C1(C)c1c(C)nn(-c3ccccc3)c1N4C)N2C` (stereo not given in full), the GI50 is more than 100 µM in [1]; more than 100 µM in assay [2]; more than 100 µM in [3]; more than 100 µM in assay [5]; 24.1 µM in [8]; more than 100 µM in assay [9]. Also, the TGI in assay [1], in assay [2], in [3], in assay [5], in assay [8] and in [9] was more than 100 µM in each case.
As for `COc1cnc2c(c1)C(=O)c1c-2n(CCCN2CCNCC2)c(=O)c2cc(F)ccc12`, the GI50 was 2.08 µM in [1]; 0.865 µM in assay [2]; 0.352 µM in assay [3]; 0.0806 µM in assay [5]; 0.368 µM in [6]; 0.0919 µM in assay [7]. Also, the GI50 was 0.21 µM in assay [8], 0.15 µM in assay [9] and 0.0275 µM in assay [10]. The TGI in [1] amounted to 16.9 µM; in [2] it was 4.43 µM; in assay [3], 1.9 µM; in assay [5], 0.89 µM; in assay [6] it was 2.87 µM; in assay [7], 1.31 µM. Besides, the TGI in [8] was found to be 0.916 µM; in assay [9], 0.507 µM; in [10], 0.164 µM.
For the compound `CN(C)c1ccc(-c2cc(-c3cccc(NS(C)(=O)=O)c3)nc(N)c2C#N)cc1`, the GI50 in assay [1] was 0.0292 µM; in [3] it was 0.054 µM; in assay [4], 0.0274 µM; in assay [5], 0.0537 µM; in [6] it was 0.0272 µM; in assay [7] it was 0.0404 µM. The GI50 in [8] was 0.033 µM; in assay [9] it was 0.045 µM; in assay [10], 0.0822 µM. For the same compound, the TGI in assay [1] worked out at 49.2 µM; in assay [3], 38.8 µM; in [4], 3.95 µM; in [5], 20.7 µM; in [6], 3.22 µM; in assay [7] it was 2.19 µM. Further, the concentration for total growth inhibition (TGI) was 1.74 µM in assay [8], 17.6 µM in assay [9] and more than 58.4 µM in assay [10].
In the case of `Nc1ncnc2c1ncn2C1SC(CO)C(O)C1O` (stereo not given), the GI50 in assay [1] was 70.5 µM; in assay [2], 13.5 µM; in assay [4], 20.1 µM; in assay [5] it was 19.3 µM; in [6], 16.8 µM; in [7], 13.5 µM. For the same compound, the GI50 is 17.3 µM in assay [8], 66.5 µM in assay [9] and more than 100 µM in assay [10]. For the same compound, the TGI in [1] was more than 100 µM; in assay [2], 52.1 µM; in assay [4], 52.6 µM; in [5], 62.3 µM; in assay [6], 46.3 µM; in assay [7] it was 50.3 µM. The values for the TGI in assay [8], in [9] and in [10] were 59.6 µM, more than 100 µM and more than 100 µM, respectively.
As for `COc1cc(-c2nn(-c3cccc(NC(=O)NCCNC(=O)c4ccccc4)c3)cc2-c2ccncc2)ccc1Cl`, the GI50 is 6.29 µM in assay [1]; 4.72 µM in assay [3]; 1.63 µM in assay [4]; 0.556 µM in assay [5]; 5.84 µM in [6]; 0.392 µM in [7]. The GI50 is 4.21 µM in [8], 2.73 µM in assay [9] and 2.18 µM in assay [10]. The TGI in [1] is more than 100 µM; in assay [3], more than 100 µM; in assay [4] it was 4.57 µM; in assay [5], more than 100 µM; in [6] it was more than 100 µM; in assay [7], more than 100 µM. The TGI was more than 100 µM in assay [8], 83.4 µM in assay [9] and more than 100 µM in assay [10].
As to `C=CN(C(=O)N1CCN(c2cc3c(cc2F)c(=O)c(C(=O)O)cn3C2CC2)CC1)c1nc(-c2ccc(C)cc2)cs1`, the GI50 in assay [1] is 3.45 µM; in assay [2], 2.67 µM; in assay [4] it was 2.59 µM; in [5] it was 3.46 µM; in assay [6], 2.13 µM; in [7], 0.319 µM. For the same compound, in assay [9], the GI50 was 2.91 µM. Also, the concentration for total growth inhibition (TGI) in assay [1] is 21.3 µM; in assay [2], 7.24 µM; in assay [4], 7.11 µM; in assay [5], more than 100 µM; in [6] it was 6.59 µM; in [7], more than 100 µM. The compound also had a TGI in [9] of more than 100 µM.

For the origin of these results see PubChem BioAssay (NCI).
